Test results as given in patent US20130252930A1 (BIOMARIN PHARMACEUTICAL INC., priority 2010, published 2013).

What follows are compounds tested against T1, CYP17 (human testicular microsome) (Homo sapiens, UniProt P05093) (assay: CYP17 enzymatic assay (% inhibition at 1 nM) (Biological Example 12)). Settings: compound at 1 nM, read-out: Biological Example No. 12: CYP17 enzymatic assay % inhibition at 1 nM.
T1 construct: using microsomal fraction from human testis (Celsis Cat #S00110) as the enzyme source; tissue Celsis S00110; host or cells: human testis microsomal fraction
T1 sequence (P05093 1-508): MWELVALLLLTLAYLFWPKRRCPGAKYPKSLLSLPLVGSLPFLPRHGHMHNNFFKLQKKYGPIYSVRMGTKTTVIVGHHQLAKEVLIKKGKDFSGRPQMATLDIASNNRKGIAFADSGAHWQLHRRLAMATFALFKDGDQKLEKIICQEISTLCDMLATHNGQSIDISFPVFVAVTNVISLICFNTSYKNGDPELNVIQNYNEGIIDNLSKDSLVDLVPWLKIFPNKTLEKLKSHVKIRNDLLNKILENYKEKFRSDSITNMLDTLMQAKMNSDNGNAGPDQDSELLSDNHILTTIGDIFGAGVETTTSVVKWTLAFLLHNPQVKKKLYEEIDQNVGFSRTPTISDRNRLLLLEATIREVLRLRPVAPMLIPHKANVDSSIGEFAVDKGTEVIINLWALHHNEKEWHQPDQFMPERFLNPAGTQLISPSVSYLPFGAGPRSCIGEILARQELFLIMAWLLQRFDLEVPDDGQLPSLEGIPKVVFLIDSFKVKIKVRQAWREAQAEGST
Assay type: biochemical

Row | SMILES | inhibition at 0.001 µM [%]
1 | C[C@]12CCC(O)(CCCO)CC1CC[C@@H]1[C@@H]2CC[C@]2(C)C(c3cccnc3)=CC[C@@H]12 (stereo partly drawn) [Compound 440, (10S,13S)-3-(3-hydroxypropyl)-10,13-dimethyl-17-(pyridin-3-yl)-2,3,4,5,6,7,8,9,10,11,12,13,14,15-tetradecahydro-1H-cyclopenta[a]phenanthren-3-ol] | 10 to 50
2 | CCNC(=O)N[C@@H]1CC[C@@]2(C)C(=CCC3C2CC[C@]2(C)C(c4cncc(F)c4)=CCC32)C1 (stereo partly drawn) [Compound 478, 1-ethyl-3-((3R,10R,13S)-17-(5-fluoropyridin-3-yl)-10,13-dimethyl-2,3,4,7,8,9,10,11,12,13,14,15-dodecahydro-1H-cyclopenta[a]phenanthren-3-yl)urea] | 10 to 50
3 | CN1CCC(C(=O)O[C@H]2CC[C@@]3(C)C(=CC[C@H]4C5=CC=C(c6cccnc6)[C@@]5(C)CC[C@@H]43)C2)CC1 [Compound 207, (3S,10R,13S)-10,13-dimethyl-17-(pyridin-3-yl)-2,3,4,7,8,9,10,11,12,13-decahydro-1H-cyclopenta[a]phenanthren-3-yl 1-methylpiperidine-4-carboxylate] | 10 to 50
4 | CC1(O)C=C2CC[C@@H]3[C@H](CC[C@]4(C)C(c5cccnc5)=CC[C@@H]34)[C@@]2(C)CC1 (stereo partly drawn) [Compound 422, (10R,13S)-3,10,13-trimethyl-17-(pyridin-3-yl)-2,3,6,7,8,9,10,11,12,13,14,15-dodecahydro-1H-cyclopenta[a]phenanthren-3-ol] | 10 to 50

Same assay, conditions: compound at 1 nM, read-out: CYP17 enzymatic assay % inhibition at 1 nM (Biological Example No. 12)

Row | SMILES | inhibition at 0.001 µM [%]
5 | CCNC(=S)N[C@@H]1CC[C@@]2(C)C(=CC[C@@H]3[C@@H]2CC[C@]2(C)C(c4cccnc4)=CC[C@@H]32)C1 [Compound 233, 1-((3R,10R,13S)-10,13-dimethyl-17-(pyridin-3-yl)-2,3,4,7,8,9,10,11,12,13,14,15-dodecahydro-1H-cyclopenta[a]phenanthren-3-yl)-3-ethylthiourea] | 10 to 50
6 | CCc1ccncc1C1=CC=C2C3CCC4C[C@@H](O)CC[C@]4(C)C3CC[C@]12C (stereo partly drawn) [Compound 465, (3S,10S,13S)-17-(4-ethylpyridin-3-yl)-10,13-dimethyl-2,3,4,5,6,7,8,9,10,11,12,13-dodecahydro-1H-cyclopenta[a]phenanthren-3-ol] | < 10
7 | CC1(C)C2=CC[C@@H]3[C@H](CC[C@]4(C)C(c5cccnc5)=CC[C@@H]34)[C@@]2(C)CCC1O (stereo partly drawn) [Compound 294, (10R,13S)-4,4,10,13-tetramethyl-17-(pyridin-3-yl)-2,3,4,7,8,9,10,11,12,13,14,15-dodecahydro-1H-cyclopenta[a]phenanthren-3-ol] | < 10
8 | Cc1ccncc1C1=CC=C2C3CCC4CC(=O)NCC[C@]4(C)C3CC[C@]12C (stereo partly drawn) [Compound 463, (5aS,7aS)-5a,7a-dimethyl-8-(4-methylpyridin-3-yl)-3,4,5,5a,5b,6,7,7a,10b,11,12,12a-dodecahydrocyclopenta[5,6]naphtho[1,2-d]azepin-2(1H)-one] | 10 to 50
9 | COc1cncc(C2=CC[C@H]3[C@@H]4CC[C@H]5C[C@@H](OC)CC[C@]5(C)[C@H]4CC[C@]23C)c1 [Compound 456, 3-methoxy-5-((3S,5S,8R,9S,10S,13S,14S)-3-methoxy-10,13-dimethyl-2,3,4,5,6,7,8,9,10,11,12,13,14,15-tetradecahydro-1H-cyclopenta[a]phenanthren-17-yl)pyridine] | 10 to 50
10 | C[C@]12CC[C@@H](N)CC1CC[C@@H]1[C@@H]2CC[C@]2(C)C(c3cccnc3)=CC[C@@H]12 (stereo partly drawn) [Compound 214, (3R,10S,13S)-10,13-dimethyl-17-(pyridin-3-yl)-2,3,4,5,6,7,8,9,10,11,12,13,14,15-tetradecahydro-1H-cyclopenta[a]phenanthren-3-amine] | 10 to 50
11 | Cc1cncc(C2=CC=C3[C@@H]4CCC5CNC(=O)CC[C@]5(C)[C@H]4CC[C@]23C)c1 (stereo partly drawn) [Compound 461, (5aR,5bS,7aS,10bR)-5a,7a-dimethyl-8-(5-methylpyridin-3-yl)-1,2,5,5a,5b,6,7,7a,10b,11,12,12a-dodecahydrocyclopenta[5,6]naphtho[2,1-c]azepin-3(4H)-one] | 10 to 50
